# Reference: patent publication US8507454B2, “Methods and unit dose formulations for the inhalation administration of aminoglycoside antibiotics” (priority 2001, dated 2013)
# “Also recorded” adds a separate entry of the source.
# Experiments:
# P. aeruginosa = conditions: cited from earlier work
# Gram-negative bacteria = conditions: Neu 1976; cited from earlier work
# [1] = Example 3: serum tobramycin pharmacokinetics; assay type: in vivo; conditions: both sexes, human, inhaled, both formulations (300 mg TOBI, 420 mg TSI), read-out: Individual estimates of serum half-life, range
# Procedure: A comparison was made of the safety, pharmacokinetics, aerosol delivery characteristics, and nebulization time of the conventional dose and inhalation delivery system (5 mL ampoule containing 300 mg tobramycin and 11.25 mg sodium chloride in sterile water for injection (TOBI® tobramycin solution for inhalation, Chiron Corporation, Seattle, Wash.), pH 6.0; administered with a PART LC PLUS™ jet nebulizer with a DeVilbiss PulmoAide™ compressor set to deliver an output pressure of 20 psi—the “control delivery system”) with a dose of 420 mg Tobramycin Solution for Inhalation at 120 mg/mL (excipient 3.5 mL of ¼ normal saline adjusted to a pH of 6.0±0.5; 420 mg in 3.5 mL) delivered by the PAM LC PLUS™ jet nebulizer with a Invacare MOBILAIRE™ compressor set to deliver an output pressure of 35 psi (the “experimental delivery system”).
# The study was designed as an open label, randomized, single-dose, multicenter, two treatment, active-control, and parallel trial. […]
# Serum Tobramycin Concentrations: Blood samples were collected at predose and at 0.167, 1, 2, 4, 6, and 8 h after the end of the nebulization period. […] Concentrations of tobramycin in serum were analyzed with a modified fluorescence polarization immunoassay (FPIA) method using the Abbott TDx®/TDxFLx® System. […] The lower limit of quantitation was 0.050 μg/mL. […]
# [2] = Example 3: sputum tobramycin pharmacokinetics; assay type: in vivo; conditions: both sexes, human, inhaled, both formulations (300 mg TOBI, 420 mg TSI), read-out: Individual estimates of sputum half-life, range
# Procedure: A comparison was made of the safety, pharmacokinetics, aerosol delivery characteristics, and nebulization time of the conventional dose and inhalation delivery system (5 mL ampoule containing 300 mg tobramycin and 11.25 mg sodium chloride in sterile water for injection (TOBI® tobramycin solution for inhalation, Chiron Corporation, Seattle, Wash.), pH 6.0; administered with a PART LC PLUS™ jet nebulizer with a DeVilbiss PulmoAide™ compressor set to deliver an output pressure of 20 psi—the “control delivery system”) with a dose of 420 mg Tobramycin Solution for Inhalation at 120 mg/mL (excipient 3.5 mL of ¼ normal saline adjusted to a pH of 6.0±0.5; 420 mg in 3.5 mL) delivered by the PAM LC PLUS™ jet nebulizer with a Invacare MOBILAIRE™ compressor set to deliver an output pressure of 35 psi (the “experimental delivery system”). […]
# Sputum Tobramycin Concentrations: Sputum samples were expectorated by patients from a deep cough and collected before day 1 dosing (predose) and at 0.25, 1, 2, 4, and 8 h after the end of the nebulization period. […] The concentration of tobramycin was analyzed using reversed-phase high-performance liquid chromatography (HPLC) with ultraviolet detection. […] After addition of 600 μL of 60/40 acetonitrile/water (v/v), 50 μL was analyzed by HPLC. […]
# [3] = Example 1: urine tobramycin recovery; assay type: in vivo, human; conditions: 7 days after prestudy or previous TOBI dose, LOQ 1.0 μg/mL
# Procedure: Urine specimens were collected and combined in a 24-hour collection container during the 12 hours before treatment (−12-0 hour period) and during 0-8 hour and 8-24 hour collection periods after treatment according to instructions provided in the Study Manual. Total urine volume for the collection period was recorded, and a 10 mL aliquot from each urine collection was retained and frozen for later analysis of urine tobramycin concentration.
# The recovery of tobramycin in urine (in […]) during 0-8 hour and 8-24 hour collection periods was calculated as follows. urine tobramycin recovery (μg)=urine volume (mL)·urine tobramycin concentration (μg/mL)
# Urine tobramycin recovery was normalized for each collection period according to TOBI dose as follows. dose-normalized urine tobramycin recovery (μg/mg)=[urine tobramycin recovery (μg)÷TOBI dose (mg)]
# The percent of the TOBI dose excreted in urine in the 24-hour period following treatment was calculated as follows. % tobramycin excreted in urine =[(urinary recovery in μg÷1000 μg/mg)÷TOBI dose in mg]·100%.
# Tobramycin concentrations in urine were measured by Abbott TDxFLx® assay [urine lower limit of quantitation (LOQ)=1.0 μg/mL].
# P. aeruginosa isolates = conditions: initial sputum cultures, Children's Hospital CF Center, Seattle, 1993; cited from earlier work
structure (smiles),measurement,setting,value
NC[C@H]1O[C@H](O[C@H]2[C@H](O)[C@@H](O[C@H]3O[C@H](CO)[C@@H](O)[C@H](N)[C@H]3O)[C@H](N)C[C@@H]2N)[C@H](N)C[C@@H]1O [tobramycin],"Average decrease in P. aeruginosa density, Week 0 to Week 20","P. aeruginosa; 300 mg inhaled tobramycin twice daily, 28 days on/28 days off, Ramsey 1999",0.8 log10
same,"Average decrease in P. aeruginosa density, Week 0 to Week 4","P. aeruginosa; 300 mg inhaled tobramycin twice daily, Ramsey 1999",1.9 log10
same,Sputum density of P. aeruginosa,"P. aeruginosa; 600 mg tid aerosolized tobramycin, 71 CF patients, crossover trial, Ramsey 1993",significant reduction
same,Concentrations effective in inhibiting the growth of many Gram-negative bacteria,Gram-negative bacteria,< 4 µg/mL
same,half-life,[1],1.1 to 6.8 h
same,half-life,[2],0.48 to 9.47 h
same,"Measurable predose urine tobramycin concentration during period listed, individual patients",[3]; after prestudy tobramycin,Per 1 - 1.82 μg/mL; also recorded: Per 1 - 3.14 μg/mL; also recorded: Per 1 - 1.74 μg/mL; also recorded: Per 1 - 2.72 μg/mL; also recorded: Per 1 - 3.80 μg/mL
same,"Measurable predose urine tobramycin concentration during period listed, individual patients",[3]; after previous TOBI 30 mg,Per 3 - 1.20 μg/mL
same,"Measurable predose urine tobramycin concentration during period listed, individual patients",[3]; after previous TOBI 60 mg,Per 3 - 1.30 μg/mL; also recorded: Per 3 - 13.22 μg/mL
same,"Measurable predose urine tobramycin concentration during period listed, individual patients",[3]; after previous TOBI 90 mg,Per 2 - 3.10 μg/mL
same,"Measurable predose urine tobramycin concentration during period listed, individual patients",[3]; after previous TOBI 300 mg,Per 2 - 2.06 μg/mL; also recorded: Per 2 - 2.58 μg/mL; also recorded: Per 2 - 1.48 μg/mL; also recorded: Per 2 - 1.58 μg/mL; also recorded: Per 2 - 2.28 μg/mL; also recorded: Per 3 - 2.70 μg/mL; also recorded: Per 3 - 1.16 μg/mL; also recorded: Per 3^c - 1.12 μg/mL; also recorded: Per 3 - 2.08 μg/mL
same,MICs of 90% of isolates,P. aeruginosa isolates,≤ 16 µg/mL
same,MICs of 98% of all isolates,P. aeruginosa isolates,≤ 128 µg/mL
